ChEMBL document CHEMBL5212743, “Selectivity Literature for EUbOPEN Chemogenomics Library wave 3” (2023)

Key:
[1] = molecular target: Serine/threonine-protein kinase PLK3 (Homo sapiens, UniProt Q9H4B4); test: Selectivity interaction (KinomeScan (DiscoverX)) EUB0000702a PLK3; conditions: at 1 µM
[2] = molecular target: Cyclin-dependent kinase 7 (Homo sapiens) (UniProt P50613); test: Selectivity interaction (KinomeScan (DiscoverX)) EUB0000702a CDK7; conditions: at 1 µM
[3] = molecular target: Serine/threonine-protein kinase RIO1 (Homo sapiens) (UniProt Q9BRS2); test: Selectivity interaction (KinomeScan (DiscoverX)) EUB0000702a RIOK1; conditions: at 1 µM
Aurora kinase B [4] = molecular target: T1, Aurora kinase B (Homo sapiens, UniProt Q96GD4); test: Selectivity interaction (KinomeScan (DiscoverX)) EUB0000702a AURKB; conditions: at 1 µM
[5] = molecular target: T2, Receptor-interacting serine/threonine-protein kinase 4 (Homo sapiens) (UniProt P57078); test: Selectivity interaction (KinomeScan (DiscoverX)) EUB0000702a RIPK4; conditions: at 1 µM
T2 sequence (whole entry): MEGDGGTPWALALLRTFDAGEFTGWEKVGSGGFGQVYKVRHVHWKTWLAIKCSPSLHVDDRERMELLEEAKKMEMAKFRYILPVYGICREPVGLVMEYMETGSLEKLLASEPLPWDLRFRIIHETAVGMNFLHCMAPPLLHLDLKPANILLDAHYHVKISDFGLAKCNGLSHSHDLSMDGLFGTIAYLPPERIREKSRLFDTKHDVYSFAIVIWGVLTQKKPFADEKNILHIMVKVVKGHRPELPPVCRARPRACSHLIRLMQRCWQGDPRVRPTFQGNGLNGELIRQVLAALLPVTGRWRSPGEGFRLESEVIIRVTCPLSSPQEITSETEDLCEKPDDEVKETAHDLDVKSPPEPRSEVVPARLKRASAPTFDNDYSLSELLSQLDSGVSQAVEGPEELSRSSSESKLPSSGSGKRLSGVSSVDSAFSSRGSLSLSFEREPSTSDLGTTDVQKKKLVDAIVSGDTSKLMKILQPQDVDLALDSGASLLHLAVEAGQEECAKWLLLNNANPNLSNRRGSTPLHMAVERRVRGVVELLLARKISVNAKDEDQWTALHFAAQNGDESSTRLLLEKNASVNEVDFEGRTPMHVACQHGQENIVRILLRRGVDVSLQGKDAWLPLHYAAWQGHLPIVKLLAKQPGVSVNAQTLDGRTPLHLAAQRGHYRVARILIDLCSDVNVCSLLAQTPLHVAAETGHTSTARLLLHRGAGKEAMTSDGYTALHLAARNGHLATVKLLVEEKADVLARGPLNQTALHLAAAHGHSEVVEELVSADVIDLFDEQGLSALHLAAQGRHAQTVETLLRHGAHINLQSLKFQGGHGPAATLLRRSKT

[6] = molecular target: Mitogen-activated protein kinase kinase kinase 1 (Homo sapiens) (UniProt Q13233); test: Selectivity interaction (KinomeScan (DiscoverX)) EUB0000702a MAP3K1; conditions: at 1 µM
[7] = molecular target: Mitogen-activated protein kinase kinase kinase 19 (Homo sapiens, UniProt Q56UN5); test: Selectivity interaction (NanoBRET assay (HEK293T cells)) EUB0000305b MAP3K19
Aurora kinase A = Aurora kinase A (Homo sapiens, UniProt O14965)
[8] = molecular target: Serine/threonine-protein kinase 10 (Homo sapiens) (UniProt O94804); conditions: at 1 µM
Aurora kinase B [9] = molecular target: T1, Aurora kinase B; conditions: at 1 µM
[10] = molecular target: Tyrosine-protein kinase Lck (Homo sapiens, UniProt P06239); conditions: at 1 µM
[11] = molecular target: Tyrosine-protein kinase HCK (Homo sapiens, UniProt P08631); conditions: at 1 µM
[12] = molecular target: MAP kinase-activated protein kinase 2 (Homo sapiens, UniProt P49137); test: Selectivity interaction (Kinase panel (University of Dundee)) EUB0000169b MAPKAPK2; conditions: at 10 µM
[13] = molecular target: Serine/threonine-protein kinase Chk1 (Homo sapiens) (UniProt O14757); test: Selectivity interaction (Kinase panel (University of Dundee)) EUB0000169b CHEK1; conditions: at 10 µM
[14] = molecular target: Dual specificity tyrosine-phosphorylation-regulated kinase 1A (Homo sapiens, UniProt Q13627); test: Selectivity interaction (Kinase panel (University of Dundee)) EUB0000169b DYRK1A; conditions: at 10 µM
[15] = molecular target: cAMP-dependent protein kinase catalytic subunit alpha (Homo sapiens, UniProt P17612); test: Selectivity interaction (Kinase panel (University of Dundee)) EUB0000169b PRKACA; conditions: at 10 µM
[16] = molecular target: Serine/threonine-protein phosphatase 2A activator (Homo sapiens) (UniProt Q15257); test: Selectivity interaction (Kinase panel (University of Dundee)) EUB0000169b PTPA; conditions: at 10 µM
[17] = molecular target: 5'-AMP-activated protein kinase catalytic subunit alpha-1 (Homo sapiens, UniProt Q13131); test: Selectivity interaction (Kinase panel (University of Dundee)) EUB0000169b PRKAA1; conditions: at 10 µM
[18] = molecular target: Platelet-derived growth factor receptor beta (Homo sapiens, UniProt P09619); test: Selectivity interaction (KinomeScan (DiscoverX)) EUB0000698a PDGFRB; conditions: at 10 µM
[19] = molecular target: Mitogen-activated protein kinase kinase kinase 1 (Homo sapiens) (UniProt Q13233); test: Selectivity interaction (KinomeScan (DiscoverX)) EUB0000698a MAP3K1; conditions: at 10 µM
[20] = molecular target: Cyclin-dependent kinase 2 (Homo sapiens, UniProt P24941); test: Selectivity interaction (Kinase panel (enzymatic assay)) EUB0000698a CDK2
[21] = molecular target: Vascular endothelial growth factor receptor 3 (Homo sapiens) (UniProt P35916); test: Selectivity interaction (KinomeScan (DiscoverX)) EUB0000698a FLT4; conditions: at 10 µM
[22] = molecular target: Mitogen-activated protein kinase kinase kinase 2 (Homo sapiens) (UniProt Q9Y2U5); test: Selectivity interaction (KinomeScan (DiscoverX)) EUB0000178b MAP3K2; conditions: at 1 µM
[23] = molecular target: Serine/threonine-protein kinase DCLK1 (Homo sapiens) (UniProt O15075); test: Selectivity interaction (KinomeScan (DiscoverX)) EUB0000178b DCLK1; conditions: at 1 µM
[24] = molecular target: Mitogen-activated protein kinase kinase kinase 3 (Homo sapiens, UniProt Q99759); test: Selectivity interaction (Enzymatic assay) EUB0000178b MAP3K3
[25] = molecular target: Mitogen-activated protein kinase kinase kinase 3 (Homo sapiens) (UniProt Q99759); test: Selectivity interaction (KinomeScan (DiscoverX)) EUB0000178b MAP3K3; conditions: at 1 µM
[26] = molecular target: Non-receptor tyrosine-protein kinase TYK2 (Homo sapiens, UniProt P29597); test: Selectivity interaction (KinomeScan (DiscoverX)) EUB0000178b TYK2; conditions: at 1 µM
[27] = molecular target: Serine/threonine-protein kinase TAO2 (Homo sapiens) (UniProt Q9UL54); test: Selectivity interaction (KinomeScan (DiscoverX)) EUB0000178b TAOK2; conditions: at 1 µM
[28] = molecular target: Dual specificity protein kinase TTK (Homo sapiens) (UniProt P33981); test: Selectivity interaction (KinomeScan (DiscoverX)) EUB0000138c TTK; conditions: at 100 nM

T1 sequence (Q96GD4 whole entry): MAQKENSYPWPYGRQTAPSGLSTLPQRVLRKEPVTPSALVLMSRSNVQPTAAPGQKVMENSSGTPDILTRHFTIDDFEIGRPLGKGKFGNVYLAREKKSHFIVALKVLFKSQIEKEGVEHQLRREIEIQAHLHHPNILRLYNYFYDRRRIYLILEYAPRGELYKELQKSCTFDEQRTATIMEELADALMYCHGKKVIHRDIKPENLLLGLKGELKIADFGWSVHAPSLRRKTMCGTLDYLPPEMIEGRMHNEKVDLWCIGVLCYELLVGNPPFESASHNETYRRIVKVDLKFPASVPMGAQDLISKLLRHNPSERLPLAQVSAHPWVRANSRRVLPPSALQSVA
Chain of Mitogen-activated protein kinase kinase kinase 1 (Homo sapiens) (Q13233 whole entry): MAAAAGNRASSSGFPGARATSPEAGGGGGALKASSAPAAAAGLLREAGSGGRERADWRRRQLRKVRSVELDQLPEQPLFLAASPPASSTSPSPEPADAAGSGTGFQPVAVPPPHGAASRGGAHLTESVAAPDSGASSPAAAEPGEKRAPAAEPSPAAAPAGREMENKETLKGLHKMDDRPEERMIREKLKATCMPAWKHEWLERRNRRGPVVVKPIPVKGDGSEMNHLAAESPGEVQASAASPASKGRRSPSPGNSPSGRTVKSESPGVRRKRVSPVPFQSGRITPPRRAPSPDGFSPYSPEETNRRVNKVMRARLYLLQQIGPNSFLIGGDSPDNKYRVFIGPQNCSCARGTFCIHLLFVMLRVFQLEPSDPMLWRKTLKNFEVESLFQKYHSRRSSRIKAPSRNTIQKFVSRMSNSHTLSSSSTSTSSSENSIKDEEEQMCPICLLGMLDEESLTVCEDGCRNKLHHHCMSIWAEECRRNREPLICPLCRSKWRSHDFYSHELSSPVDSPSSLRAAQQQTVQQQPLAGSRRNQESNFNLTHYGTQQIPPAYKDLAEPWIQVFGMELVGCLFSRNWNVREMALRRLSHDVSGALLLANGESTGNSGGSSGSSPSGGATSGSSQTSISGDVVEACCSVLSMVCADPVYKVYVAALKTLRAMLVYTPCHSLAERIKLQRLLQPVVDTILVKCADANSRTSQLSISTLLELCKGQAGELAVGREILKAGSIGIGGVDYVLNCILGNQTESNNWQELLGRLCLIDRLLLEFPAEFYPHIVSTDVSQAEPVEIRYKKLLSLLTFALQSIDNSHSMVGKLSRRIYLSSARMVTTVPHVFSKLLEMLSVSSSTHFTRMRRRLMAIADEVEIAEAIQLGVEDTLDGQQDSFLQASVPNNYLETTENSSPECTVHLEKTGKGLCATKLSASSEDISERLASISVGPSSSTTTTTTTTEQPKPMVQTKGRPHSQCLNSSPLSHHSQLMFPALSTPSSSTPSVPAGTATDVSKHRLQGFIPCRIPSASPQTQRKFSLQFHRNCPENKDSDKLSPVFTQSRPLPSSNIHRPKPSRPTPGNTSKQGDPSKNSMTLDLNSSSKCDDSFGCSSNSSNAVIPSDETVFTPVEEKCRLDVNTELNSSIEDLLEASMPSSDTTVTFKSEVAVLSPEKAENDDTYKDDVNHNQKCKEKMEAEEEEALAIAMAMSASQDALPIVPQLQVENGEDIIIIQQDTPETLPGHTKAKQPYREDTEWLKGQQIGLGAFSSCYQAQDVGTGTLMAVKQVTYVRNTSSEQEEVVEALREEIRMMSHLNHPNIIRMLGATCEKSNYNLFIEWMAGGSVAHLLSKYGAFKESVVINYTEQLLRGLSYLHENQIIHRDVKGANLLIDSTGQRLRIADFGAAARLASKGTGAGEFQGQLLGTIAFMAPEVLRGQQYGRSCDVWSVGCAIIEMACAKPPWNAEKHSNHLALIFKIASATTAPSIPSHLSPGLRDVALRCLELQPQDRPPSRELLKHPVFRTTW
Chain of Serine/threonine-protein phosphatase 2A activator (Homo sapiens) (Q15257 whole entry): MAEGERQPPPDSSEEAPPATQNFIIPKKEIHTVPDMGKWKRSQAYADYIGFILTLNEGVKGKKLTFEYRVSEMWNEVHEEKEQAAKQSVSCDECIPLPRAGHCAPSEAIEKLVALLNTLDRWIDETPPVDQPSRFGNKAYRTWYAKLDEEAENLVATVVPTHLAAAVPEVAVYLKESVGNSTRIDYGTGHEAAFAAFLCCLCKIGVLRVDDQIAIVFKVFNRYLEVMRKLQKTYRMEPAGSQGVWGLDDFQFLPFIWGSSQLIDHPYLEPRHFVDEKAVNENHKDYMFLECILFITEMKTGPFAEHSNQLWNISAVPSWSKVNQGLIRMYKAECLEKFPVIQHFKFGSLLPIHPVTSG
Chain of Serine/threonine-protein kinase TAO2 (Homo sapiens) (Q9UL54 whole entry): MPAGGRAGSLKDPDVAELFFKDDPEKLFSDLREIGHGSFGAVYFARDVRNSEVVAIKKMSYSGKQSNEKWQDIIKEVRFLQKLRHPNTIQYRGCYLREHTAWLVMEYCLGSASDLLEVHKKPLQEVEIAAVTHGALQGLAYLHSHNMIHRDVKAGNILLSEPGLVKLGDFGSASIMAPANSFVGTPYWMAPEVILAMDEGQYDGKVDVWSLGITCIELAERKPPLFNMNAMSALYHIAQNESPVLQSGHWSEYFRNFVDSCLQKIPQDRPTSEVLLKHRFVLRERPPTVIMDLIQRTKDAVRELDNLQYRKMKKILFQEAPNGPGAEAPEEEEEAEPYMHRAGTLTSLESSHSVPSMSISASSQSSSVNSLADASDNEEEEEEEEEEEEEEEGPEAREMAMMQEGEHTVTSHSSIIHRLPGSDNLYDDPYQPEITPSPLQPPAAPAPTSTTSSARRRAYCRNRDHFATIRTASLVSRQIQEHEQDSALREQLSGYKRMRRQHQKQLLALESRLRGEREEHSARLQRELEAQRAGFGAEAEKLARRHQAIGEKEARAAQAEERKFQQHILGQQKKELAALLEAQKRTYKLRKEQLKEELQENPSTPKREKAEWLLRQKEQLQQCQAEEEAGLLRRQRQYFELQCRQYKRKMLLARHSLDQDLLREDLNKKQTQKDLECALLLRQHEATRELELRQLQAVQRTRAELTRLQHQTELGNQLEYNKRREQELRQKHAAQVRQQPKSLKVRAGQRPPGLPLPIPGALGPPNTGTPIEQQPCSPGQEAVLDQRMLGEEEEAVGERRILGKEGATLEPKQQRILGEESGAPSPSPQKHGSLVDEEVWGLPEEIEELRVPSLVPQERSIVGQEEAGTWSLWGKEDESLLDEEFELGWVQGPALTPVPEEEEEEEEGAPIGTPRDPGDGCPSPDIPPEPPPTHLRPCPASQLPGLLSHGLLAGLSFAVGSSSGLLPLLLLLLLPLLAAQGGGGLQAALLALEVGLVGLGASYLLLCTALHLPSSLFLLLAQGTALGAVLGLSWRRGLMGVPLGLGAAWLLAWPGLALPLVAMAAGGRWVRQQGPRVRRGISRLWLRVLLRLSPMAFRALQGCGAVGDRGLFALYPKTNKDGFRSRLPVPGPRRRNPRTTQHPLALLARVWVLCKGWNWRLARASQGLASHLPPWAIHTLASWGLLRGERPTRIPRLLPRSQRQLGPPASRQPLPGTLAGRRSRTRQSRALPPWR
Chain of 5'-AMP-activated protein kinase catalytic subunit alpha-1 (Q13131 whole entry, looked up): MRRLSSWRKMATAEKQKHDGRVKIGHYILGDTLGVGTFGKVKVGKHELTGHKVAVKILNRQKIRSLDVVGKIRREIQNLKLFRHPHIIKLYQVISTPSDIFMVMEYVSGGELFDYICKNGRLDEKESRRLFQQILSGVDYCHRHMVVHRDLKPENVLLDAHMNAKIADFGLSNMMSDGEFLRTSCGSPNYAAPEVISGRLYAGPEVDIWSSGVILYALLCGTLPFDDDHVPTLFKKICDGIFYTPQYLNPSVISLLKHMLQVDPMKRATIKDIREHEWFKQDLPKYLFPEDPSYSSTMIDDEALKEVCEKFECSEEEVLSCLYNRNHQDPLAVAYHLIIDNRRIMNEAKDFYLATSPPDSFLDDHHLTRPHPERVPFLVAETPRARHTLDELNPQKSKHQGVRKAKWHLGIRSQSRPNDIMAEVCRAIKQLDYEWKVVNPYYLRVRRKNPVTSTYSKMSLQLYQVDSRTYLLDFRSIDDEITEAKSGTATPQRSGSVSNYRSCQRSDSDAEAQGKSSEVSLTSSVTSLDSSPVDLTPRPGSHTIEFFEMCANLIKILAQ
Chain of Aurora kinase A (O14965 whole entry): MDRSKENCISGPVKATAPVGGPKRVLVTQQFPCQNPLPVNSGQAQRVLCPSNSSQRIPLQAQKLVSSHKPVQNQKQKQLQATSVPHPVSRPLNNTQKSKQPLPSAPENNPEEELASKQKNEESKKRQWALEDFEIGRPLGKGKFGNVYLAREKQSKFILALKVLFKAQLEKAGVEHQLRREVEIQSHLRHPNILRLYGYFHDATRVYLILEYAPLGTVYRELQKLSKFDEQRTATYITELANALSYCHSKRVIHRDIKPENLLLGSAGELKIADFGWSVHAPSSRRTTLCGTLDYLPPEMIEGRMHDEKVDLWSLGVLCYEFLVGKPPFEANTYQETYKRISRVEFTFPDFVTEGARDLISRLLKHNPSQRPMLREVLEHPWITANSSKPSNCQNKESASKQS
Chain of Serine/threonine-protein kinase Chk1 (Homo sapiens) (O14757 whole entry): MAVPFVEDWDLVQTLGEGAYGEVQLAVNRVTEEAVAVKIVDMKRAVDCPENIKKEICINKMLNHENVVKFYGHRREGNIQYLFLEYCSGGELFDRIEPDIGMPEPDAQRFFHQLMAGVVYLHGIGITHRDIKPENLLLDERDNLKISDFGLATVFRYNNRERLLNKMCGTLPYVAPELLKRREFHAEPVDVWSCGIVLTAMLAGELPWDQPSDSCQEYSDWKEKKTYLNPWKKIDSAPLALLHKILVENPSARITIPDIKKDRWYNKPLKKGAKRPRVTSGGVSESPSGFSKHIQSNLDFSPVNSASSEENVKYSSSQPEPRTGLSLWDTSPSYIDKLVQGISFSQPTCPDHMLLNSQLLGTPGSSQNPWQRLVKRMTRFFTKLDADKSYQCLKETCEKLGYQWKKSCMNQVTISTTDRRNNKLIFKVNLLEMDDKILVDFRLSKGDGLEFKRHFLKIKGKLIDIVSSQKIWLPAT

CN(c1ccnc(CNc2nc(Nc3ccc4c(c3)CC(=O)N4)ncc2C(F)(F)F)n1)S(C)(=O)=O [PF-00911705]
% of control [1]: 1.7%
% of control [2]: 3.5%
% of control [3]: 9.7%
% of control (Aurora kinase B [4]): 9.9%
% of control [5]: 6%
% of control [6]: 0%

C[C@H](c1ccnc(Nc2nc3ccc(-c4cc(N(C)C)ncn4)cc3[nH]2)c1)N1CCN(C(=O)CC(F)(F)F)CC1 [BAY-985]
IC50 [7]: > 20000 nM

CCOc1cn(-c2ccc(F)cc2C)nc1C(=O)Nc1ccc(Oc2ccnc3cc(OC)c(OC)cc23)c(F)c1
IC50 (Aurora kinase A): 36 nM
% of control [8]: < 10%
% of control (Aurora kinase B [9]): < 10%
% of control [10]: < 10%
% of control [11]: < 10%

CC[C@@H]1C(=O)N(C)c2cnc(Nc3ccc(C(=O)NC4CCN(C)CC4)cc3OC)nc2N1C1CCCC1
% of control [12]: 79%
% of control [13]: 91%
% of control [14]: 72%
% of control [15]: 100%
% of control [16]: 56%
% of control [17]: 89%

COc1cc2ncn(-c3cc(OCc4ccccc4C(F)(F)F)c(C(N)=O)s3)c2cc1OC [GW843682X]
% of control [18]: 5.3%
% of control [19]: 1.6%
IC50 [20]: 7600 nM
% of control [21]: 1.4%

CN1C(=O)c2sccc2N(C)c2nc(Nc3ccc(S(N)(=O)=O)cc3)ncc21
% of control [22]: 2.6%
% of control [23]: 8.3%
IC50 [24]: 34.8 nM
% of control [25]: 2%
% of control [26]: 2.7%
% of control [27]: 3.4%

CNC(=O)c1ccc(Nc2ncc(C(F)(F)F)c(NCc3nccnc3N(C)S(C)(=O)=O)n2)cc1 [DEFACTINIB]
% of control [28]: 8.3%
